Source: US10858443B2, “Synthetic notch protein for modulating gene expression” (TRUSTEES OF BOSTON UNIVERSITY, priority 2017, dated 2020)
Entries after “also recorded” stand apart in the source; their conditions may differ.

What was measured:
NS3 protease [1] = target: T1, NS3 protease (Hepatitis C virus genotype 1a, UniProt P26664, A1066T/DELINS1218-1635AV/I1179L/T1080A); type: cell-based; conditions: for stabilization of full-length dCas9-NS3 TF (immunoblot): drug-treated versus untreated cells
NS3 protease [2] = target: T1, NS3 protease; type: cell-based; conditions: Cho-K1 UAS H2B-Citrine line expressing DBGal4-NS3-TAGal4; drug ~24 hours; flow cytometry (FIG. 18)
HEK 293FT cells [3] = experiment: SynNotch background (leaky) activation, SN versus SN-LWF core, HEK 293FT cells; type: cell-based, human
Method: FIGS. 31A-31C show reduction of SynNotch leakiness by incorporation of the juxtamembrane LWF motif (FIG. 31A) Schematic of the Notch TMD and LWF motif, slightly modified from to highlight the difference between the original SynNotch core's C-terminus and the modified SynNotch core's C-terminus, where 10 amino acids are added to include the LWF motif (FIGS. 31B and 31C) anti-FITC SynNotch receptors containing SN or SN-LWF as the core domain are expressed and tested in HEK 293FT cells. Cells are either plated on fibronectin alone to test background activation (dashed lines) or on fibronectin with BSA-FITC to activate the receptors (solid lines). FIG. 31A discloses SEQ ID NO: 70. […] Values shown are the percentage of cells in the ON state for each case.
Data herein provides preliminary evidence that inclusion of the LWF motif reduces background activation in SynNotch receptors. In initial experiments, the original SynNotch core design (SN) was compare with a SynNotch core containing the LWF motif (SN-LWF) (FIG. 31A). Each receptor core was test with two different transcription factor intracellular domains (ICD's): Gal4 fused to VP64 (“VP64,” a modest transcriptional activator commonly used in SynNotch) and Gal4 fused to VPR (“VPR,” a strong transcriptional activator, whose strength is penalized by high background activation in SynNotch constructs). […]

NS3 protease [4] = target: T1, NS3 protease; type: cell-based; conditions: 3 μM BILN-2061
human Notch1 = experiment: Dll1-NS3-mCherry ligand presentation and sender/receiver coculture Notch signaling; type: cell-based; conditions: 1.5 μM BILN-2061
Description: FIG. 17C Immunofluorescence staining of fixed (non-permeabilized) cells expressing Dll1-NS3-mCherry. […] FIG. 17D Schematic depiction of trans-cellular signaling between Notch “receiver” cells by Dll1-NS3-mCherry expressing “sender” cells in the absence and presence of drug. FIG. 17E Fluorescence images of cocultured sender and receiver cells. Sender cells expressed the Dll1-NS3-mCherry ligand. Receiver cells constitutively expressed human Notch1 and H2B-Cerulean, and conditionally expressed H2B-Citrine upon up Notch activation. […] The interface between sender and receiver cells colonies is denoted by the white dotted line. FIG. 17F Magnified region from the inset shown in (17E) shown as an overlay with the corresponding transmitted light image.
FIGS. 25A and 25B show images of Dll1-NS3/4A-mCherry mediated cell-cell signaling captured by epifluorescence imaging under 10× magnification. FIG. 25A Sender cells expressing the Dll1-NS3/4A ligand are cultured with receiver cells expressing the Notch transmembrane receptor. Receiver cell population is identified by a constitutively expressed H2B-Cerulean. Notch activation drives reporter activity of H2B-Citrine. Cells are cultured together with or without 1.5 μM BILN-2061 drug for 72 hours before imaging. FIG. 25B […]

NS3 protease [5] = target: T1, NS3 protease; type: cell-based; conditions: increasing concentration of BILN-2061; 100 ng/mL doxycycline
NS3 protease [6] = target: T1, NS3 protease; type: cell-based; conditions: DBGal4-NS3-TAGal4, anti-HA western; intact TF undetectable in untreated controls
CXCR4 = experiment: dCas9-NS3-NLS/VPR drug-induced gene upregulation (flow cytometry); type: cell-based, human; conditions: dCas9-NS3-NLS/VPR with sgRNA
Method: FIGS. 16A-16E show drug-control over endogenous gene expression using dCas9-NS3-NLSNPR. FIG. 16A Schematic depiction of the drug-inducible stabilization and nuclear localization of dCas9-NS3-NLSNPR. […] An unfused dCas9 domain (160 kDa) is produced in the absence of drug. FIG. 16C Immunostained HeLa cells showing the subcellular localization of the dCas9 domain in the presence or absence of 3 μM BILN-2061. […] FIG. 16D Schematic of the time-dependent dye labeling strategy used to analyze cells expressing SNAP-dCas9-NS3-NLSNPR (top), and corresponding fluorescence images of dye-labeled HeLa cells (bottom). […] Expression of the chemokine receptor was analyzed by staining of cells anti-CXCR4 antibody followed by quantification via flow cytometry.
FIG. 22 sgRNAs targeting the CXCR4 promoter were co-transfected into HEK 293FT alongside DNAs encoding either dCas9-VPR, or dCas9-NS3-NLS/VPR. The extent of CXCR4 upregulation was subsequently quantified by flow cytometry using a fluorescently-labeled anti-CXCR4 antibody. […]
For expression analyses carried out using dCas9-based TFs, HEK 293FT cells were seeded in 48-well plates and transfected at a density of […] cells per well. […] Expression of the chemokine receptor was analysed via flow cytometry using a fluorescently-conjugated CXCR-4 antibody; geometric means were recorded.

HEK 293FT cells [7] = experiment: Tension Gauge Tether (TGT) assay of Notch/SynNotch receptor activation; type: cell-based, human; conditions: mCherry reporter, flow cytometry
Description: FIG. 5A-5E depict the use of ruptureable double-stranded DNA tethers. […] One strand of the TGT attaches to a rigid plate through biotin-avidin binding, while the other presents a ligand. The TGT ruptures at a defined force, determined by the orientation of the ligand and the biotin. If the TGT is weaker than the force required to activate the Notch receptor, it ruptures before the LNR domains can be displaced. If it is stronger, the LNR domains are displaced and activation occurs.
(FIG. 33A) TGTs are double stranded-DNA tethers that rupture at defined forces. One strand of the TGT attaches to a rigid plate, and the other presents a ligand for cells to bind. In this case, the ligand used is fluorescein, which interacts with an αFITC SynNotch. If the tension tolerance of the TGT is weaker than that of the NRR, the TGT will break before the NRR can open. If it is stronger, the NRR domain will unravel, and Notch activation will occur, as visualized by expression of an H2B-mCherry reporter gene.

**Q.** With `COc1ccc2c(O[C@@H]3C[C@H]4C(=O)N[C@]5(C(=O)O)C[C@H]5/C=C\CCCCC[C@H](NC(=O)OC5CCCC5)C(=O)N4C3)cc(-c3csc(NC(C)C)n3)nc2c1` [ciluprevir] as the molecule, how does the “stabilization of full-length dCas9-NS3 TF (immunoblot)” value (NS3 protease [1]) read?
**A.** dCNV is stabilized

**Q.** For `CC(C)(C)OC(=O)N[C@H]1CCCCC/C=C\[C@@H]2C[C@@]2(C(=O)NS(=O)(=O)C2CC2)NC(=O)[C@@H]2C[C@@H](OC(=O)N3Cc4cccc(F)c4C3)CN2C1=O` [danoprevir], which “expression of the H2B-Citrine reporter protein” value (NS3 protease [2]) is on record?
**A.** capable of inducing robust transcriptional responses

**Q.** Which “effect on leaky SynNotch receptor activation” value (HEK 293FT cells [3]) does the source give for `C[C@H](NC(=O)Cc1cc(F)cc(F)c1)C(=O)N[C@H](C(=O)OC(C)(C)C)c1ccccc1` [DAPT] here?
**A.** suppress leaky receptor activation

**Q.** `COc1ccc2c(O[C@@H]3C[C@H]4C(=O)N[C@]5(C(=O)O)C[C@H]5/C=C\CCCCC[C@H](NC(=O)OC5CCCC5)C(=O)N4C3)cc(-c3csc(NC(C)C)n3)nc2c1` [BILN-2061] was tested. Which “nuclear localization of dCas9 domain” value (NS3 protease [1]; HeLa cells, 3 μM BILN-2061) did it give?
**A.** Nuclear localized dCas9 was observed only in drug treated cells

**Q.** And the “stabilization of full-length dCas9-NS3 TF (immunoblot)” value (NS3 protease [1])?
**A.** preservation of full-length dCas9-NS3-NLSNPR copies

**Q.** What about the “preservation of intact turn-off TF proteins (western blot)” value (NS3 protease [4]) of the same molecule?
**A.** Intact proteins were preserved

**Q.** What about the “Notch activation of receiver cells (H2B-Citrine) in coculture” value (human Notch1; Dll1-NS3-mCherry sender cells) of the same molecule?
**A.** Activated receiver cells were observed only in cocultures treated with drug

**Q.** What about the “surface presentation of Dll1 extracellular region” value (human Notch1; fixed non-permeabilized cells expressing Dll1-NS3-mCherry) of the same molecule?
**A.** Surface presentation of the Dll1 extracellular region was induced

**Q.** And the “expression of the H2B-Citrine reporter protein” value (NS3 protease [2])?
**A.** capable of inducing robust transcriptional responses

**Q.** What about the “regulation of TRE BFP and UAS H2B-Citrine reporters” value (NS3 protease [5]) of the same molecule?
**A.** induced concurrent TRE BFP activation and UAS H2B-Citrine repression

**Q.** And the “BILN-2061 concentration at which TF stabilization was shown (enhanced detection)” value (NS3 protease [6])?
**A.** 0.08 µM

**Q.** And the “upregulation of gene targets (UAS H2B-Citrine reporter, CXCR4)” value (CXCR4)?
**A.** induce upregulation of both gene targets in a dose-dependent manner

B1: WT NRR: "Notch's force-sensitive Negative Regulatory Region, which contains three LNR domains" (protein, listed as Homo sapiens)
chain: ILDYSFGGGAGRDIPPPLIEEACELPECQEDAGNKVCSLQCNNHACGWDGGDCSLNFNDPWKNCTQSLQCWKYFSDGHCDSQCNSAGCLFDGFDCQRAEGQCNPLYDQYCKDHFSDGHCDQGCNSAECEWDGLDCAEHVPERLAAGTLVVVVLMPPEQLRNSSFHFLRELSRVLHTNVVFKRDAHGQQMIFPYYGREEELRKHPIKRAAEGWAAPDALLGQVKASLLPGGSEGGRRRRELDPMDVRGSIVYLEIDNRQCVQASSQCFQSATDVAAFLGALASLGSLNIPYKIEAVQSETVEPPPPAQ
**Q.** How did the “receptor activation on TGTs of defined strength” value (HEK 293FT cells [7]) turn out when B1 was run?
**A.** activated by both 12 pN and 56 pN TGTs; also recorded: responding identically to all mechanical stimuli
